The values that follow come from US11466006B2, “Dual selective PI3 delta and gamma kinase inhibitors” (Rhizen Pharmaceuticals SA, priority 2013, dated 2022).

For data set [1], the system named is T-lymphoma (MOLT-4, Jurkat, CCRF-CEM, Hut-78 & HuT-102) cells. The data set can be described thus: In vitro cell proliferation assay in leukemic cell lines (MTT). The format is cell-based. The procedure:
Growth inhibition assays were carried out using 10% FBS supplemented media. Cells were seeded at a concentration of 5000-20,000 cells/well in a 96-well plate. Test compounds at a concentration range from 0.01 to 10000 nM were added after 24 h. Growth was assessed using the 3-[4,5-dimethylthiazol-2-yl]-2,5-diphenyltetrazolium bromide (MTT) dye reduction test at 0 h (prior to the addition of the test compound) and 72 h after the addition of test compound. Absorbance was read on a Fluostar Optima (BMG Labtech, Germany) at a wave length of 450 nm. Data were analysed using GraphPad Prism and percent inhibition due to the test compound compared to the control was calculated accordingly.

The target of a further data set is T1, PI3K beta (Mus musculus, UniProt Q8BTI9).
T1 construct: 3T3 cells were treated with desired concentrations of the test compound for 15 min; endogenous in cells; host or cells: 3T3 fibroblasts
The data set is described as follows: LPA induced AktS473 phosphorylation in 3T3 fibroblasts (PI3Kβ selectivity). The conditions noted are these: read-out: Cellular IC50 PI3K beta (LPA induced pAKT in 3T3 fibroblasts). The class given is cell-based.

The target of a further data set is T2, PI3K alpha (Mus musculus, UniProt P42337).
T2 construct: endogenous in cells; host or cells: 3T3 fibroblasts
The data set is described as follows: PDGF induced Akt phosphorylation in 3T3 cells (PI3Kα selectivity). The format is cell-based. The method, then:
The objective of this study was to determine the effect of Compound A1 on PI3Kα kinase mediated AktS473 phosphorylation in PDGF induced 3T3 fibroblasts. • 3T3 cells were treated with desired concentrations of the test compound for 15 min. 1 ml of 2× PDGF was added such that the final concentration was 20 ng/ml and incubated for 10 min. • Media was discarded and washed with 1 ml of ice-cold 1× PBS. • 250 μl of cell lysis buffer was added and incubated on ice for 30 min. • Samples were centrifuged and supernatant was collected and stored at −80° C. until analysis. • Samples were analyzed by Western Blotting using pAKT (S473) as the primary and anti-rabbit IgG-HRP as a secondary antibody. • Intensity of the bands was determined using ImageJ 1.42q (NIH, USA) and normalized to Actin (loading control). Data was plotted using GraphPad Prism (Version 5.02).

The next data set relates to caspase-3 activity. The data set is described as follows: Apoptosis in leukemic cell lines (in-situ Caspase 3 kit). The class given is cell-based. The conditions noted are these: MOLT-4, Jurkat, CCRF-CEM, Hut-78 & HuT-102; 24 hrs. The method, then:
Apoptosis in leukemic cells was determined using an in-situ Caspase 3 kit (Millipore, US) as outlined below: • Seed leukemic cells—at a density of 1×10^6 cells/well in a 6 well plate • Add test compound/DMSO at desired concentrations • Incubate the plate for 24 hrs at 37° C. in 5% CO2 incubator • Collect cells in a 2 ml centrifuge tube • Add 1.6 μL of freshly prepared 5× FLICA reagent and mix cells by slightly flicking the tubes • Incubate tubes for 1 hour at 37° C. under 5% CO2 • Add 2 ml of 1× wash buffer to each tube and mix • Centrifuge cells at <400× g for 5 minutes at room temperature. • Carefully remove and discard supernatant, and gently vortex cell pellet to disrupt any cell-to-cell clumping. • Resuspend cell pellet in 300 ul of 1× wash buffer • Place 100 μL of each cell suspension into each of two wells of a black microtiter plate. Avoid creation of bubbles. • Read […] of each microwell using an excitation wavelength of 490 nm and an emission wavelength of 520 nm • Percent increase in caspase-3 activity manifested by an increase in fluorescence compared to the control blank is to be calculated.

The next data set has as its system Female Wistar rats. The data set is described as follows: Lipopolysaccharide-induced rat air pouch model of inflammation. The class given is in vivo. The conditions noted are these: Neutrophil, oral, 1 h before LPS, pouch fluid at 6 h, read-out: ED50, reduction of neutrophil migration into the rat air pouch. The method, then:
Female Wistar rats (175-200 g) were acclimatized for seven days prior to the start of the experiment Animals were randomly distributed to various groups based on their body weights Animals were anaesthetised with ether and subcutaneous air pouches were made by injecting 20 ml of sterile air under the skin in the intra-scapular area (day 0) and maintained with a second 10-ml injection of sterile-filtered air on day 4. On day 6, oral treatment was commenced 1 h prior to induction of inflammation by s.c. injection of LPS solution on day 6. A volume of 5-ml of LPS solution dissolved in sterile saline (100 μg/kg) was injected into each pouch. Samples of pouch fluid were taken at 6 h after administration of LPS by flushing the pouch with 5 ml of sterile saline and withdrawing 4 ml of fluid. The numbers of leukocytes present in pouch fluid was determined microscopically using a haemocytometer. Differential cell content was determined by microscopic examination of fluid smears stained with Diff-Quik.

A further data set has as its target PI3Kδ (Homo sapiens, UniProt O00329). The data set can be described thus: Fluorescent (HTRF) determination of PI3 kinase enzyme activity, delta isoform. The format is biochemical. The arrangement: purchased Millipore (assay kit). The conditions noted are these: Table 1, HTRF; read-out: IC50 (nM) Pi3Kδ. The source says:
Phosphoinositide 3 kinases (PI3K) belong to a class of lipid kinases that play a critical role in the regulation of several key cellular processes. The PI3K are capable of phosphorylating the 3-hydroxy position of phosphoinositols thereby generating second messengers involved in downstream signalling events. The homogenous time resolved fluorescence (HTRF) assay allows detection of 3,4,5-triphosphate (PIP3) formed as a result of phosphorylation of phosphotidylinositol 4,5-biphosphate (PIP2) by PI3K isoforms such as α, β, γ or δ.
PI3K isoform activity for α, β, γ or δ was determined using a PI3K human HTRF™ Assay Kit (Millipore, Billerica, Mass.) with modifications. All incubations were carried out at room temperature. Briefly, 0.5 μl of 40× inhibitor (in 100% DMSO) or 100% DMSO were added to each well of a 384-well white plate (Greiner Bio-One, Monroe, N.C.) containing 14.5 μl 1× reaction buffer /PIP2 (10 mM MgCl2, 5 mM DTT, 1.38 μM PIP2) mix with or without enzyme, followed by 5 μl/well of 400 μM ATP and incubated for an additional 30 minutes. Reaction was terminated by adding 5 μl/well stop solution (Millipore, Billerica, Mass.). […] HRTF ratio was measured on a microplate reader (BMG Labtech., Germany) at an excitation wavelength of 337 nm and emission wavelengths of 665 and 615 nm with an integration time of 400 msec counting delay of 50 msec.

Each structure is given as a SMILES string.

T2 sequence (P42337 whole entry): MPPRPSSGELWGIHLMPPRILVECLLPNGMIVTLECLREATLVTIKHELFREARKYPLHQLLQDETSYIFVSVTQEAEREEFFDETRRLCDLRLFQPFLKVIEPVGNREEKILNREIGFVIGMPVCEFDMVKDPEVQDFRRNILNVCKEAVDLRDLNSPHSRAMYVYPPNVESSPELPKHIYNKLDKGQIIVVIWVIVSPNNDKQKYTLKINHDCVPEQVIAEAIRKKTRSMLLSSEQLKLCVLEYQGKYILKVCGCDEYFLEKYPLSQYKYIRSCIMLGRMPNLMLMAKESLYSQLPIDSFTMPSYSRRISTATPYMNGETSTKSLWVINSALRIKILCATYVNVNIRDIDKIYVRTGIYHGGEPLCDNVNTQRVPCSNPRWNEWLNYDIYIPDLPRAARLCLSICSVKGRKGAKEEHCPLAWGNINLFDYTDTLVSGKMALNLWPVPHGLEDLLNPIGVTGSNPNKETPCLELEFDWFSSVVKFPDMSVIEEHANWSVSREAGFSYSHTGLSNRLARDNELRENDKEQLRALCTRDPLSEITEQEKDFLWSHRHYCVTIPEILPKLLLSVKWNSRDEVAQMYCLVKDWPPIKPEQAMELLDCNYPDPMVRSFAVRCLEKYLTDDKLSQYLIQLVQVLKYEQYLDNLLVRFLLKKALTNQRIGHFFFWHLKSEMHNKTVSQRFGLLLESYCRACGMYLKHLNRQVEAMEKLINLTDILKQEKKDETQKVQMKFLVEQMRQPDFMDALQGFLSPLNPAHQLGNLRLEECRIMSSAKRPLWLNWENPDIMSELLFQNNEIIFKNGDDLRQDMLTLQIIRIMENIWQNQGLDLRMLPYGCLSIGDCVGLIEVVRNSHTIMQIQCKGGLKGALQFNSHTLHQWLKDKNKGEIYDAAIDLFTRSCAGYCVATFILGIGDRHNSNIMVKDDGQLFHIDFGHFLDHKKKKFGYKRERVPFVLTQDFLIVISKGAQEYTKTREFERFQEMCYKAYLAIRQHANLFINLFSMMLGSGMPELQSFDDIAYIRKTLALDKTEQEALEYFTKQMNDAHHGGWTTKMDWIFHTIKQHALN
T2 sequence (P26450 whole entry partner): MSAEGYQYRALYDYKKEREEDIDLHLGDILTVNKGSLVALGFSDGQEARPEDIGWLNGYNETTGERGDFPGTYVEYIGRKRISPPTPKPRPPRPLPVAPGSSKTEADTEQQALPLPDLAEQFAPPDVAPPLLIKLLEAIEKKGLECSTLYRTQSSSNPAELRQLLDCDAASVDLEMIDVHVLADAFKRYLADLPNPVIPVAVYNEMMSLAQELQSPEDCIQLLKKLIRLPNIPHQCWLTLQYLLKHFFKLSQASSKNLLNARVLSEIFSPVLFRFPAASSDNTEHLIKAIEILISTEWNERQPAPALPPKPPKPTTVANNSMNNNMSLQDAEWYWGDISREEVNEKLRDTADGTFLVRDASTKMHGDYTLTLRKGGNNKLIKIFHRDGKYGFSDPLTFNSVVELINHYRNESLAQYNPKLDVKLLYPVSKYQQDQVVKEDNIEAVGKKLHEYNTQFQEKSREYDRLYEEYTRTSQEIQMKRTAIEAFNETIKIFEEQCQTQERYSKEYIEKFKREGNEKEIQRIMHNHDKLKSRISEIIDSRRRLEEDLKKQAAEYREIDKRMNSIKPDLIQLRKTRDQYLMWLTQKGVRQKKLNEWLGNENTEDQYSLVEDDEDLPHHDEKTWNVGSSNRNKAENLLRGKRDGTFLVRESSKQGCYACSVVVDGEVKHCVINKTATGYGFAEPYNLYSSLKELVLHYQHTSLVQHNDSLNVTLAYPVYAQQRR
T1 sequence (Q8BTI9 whole entry): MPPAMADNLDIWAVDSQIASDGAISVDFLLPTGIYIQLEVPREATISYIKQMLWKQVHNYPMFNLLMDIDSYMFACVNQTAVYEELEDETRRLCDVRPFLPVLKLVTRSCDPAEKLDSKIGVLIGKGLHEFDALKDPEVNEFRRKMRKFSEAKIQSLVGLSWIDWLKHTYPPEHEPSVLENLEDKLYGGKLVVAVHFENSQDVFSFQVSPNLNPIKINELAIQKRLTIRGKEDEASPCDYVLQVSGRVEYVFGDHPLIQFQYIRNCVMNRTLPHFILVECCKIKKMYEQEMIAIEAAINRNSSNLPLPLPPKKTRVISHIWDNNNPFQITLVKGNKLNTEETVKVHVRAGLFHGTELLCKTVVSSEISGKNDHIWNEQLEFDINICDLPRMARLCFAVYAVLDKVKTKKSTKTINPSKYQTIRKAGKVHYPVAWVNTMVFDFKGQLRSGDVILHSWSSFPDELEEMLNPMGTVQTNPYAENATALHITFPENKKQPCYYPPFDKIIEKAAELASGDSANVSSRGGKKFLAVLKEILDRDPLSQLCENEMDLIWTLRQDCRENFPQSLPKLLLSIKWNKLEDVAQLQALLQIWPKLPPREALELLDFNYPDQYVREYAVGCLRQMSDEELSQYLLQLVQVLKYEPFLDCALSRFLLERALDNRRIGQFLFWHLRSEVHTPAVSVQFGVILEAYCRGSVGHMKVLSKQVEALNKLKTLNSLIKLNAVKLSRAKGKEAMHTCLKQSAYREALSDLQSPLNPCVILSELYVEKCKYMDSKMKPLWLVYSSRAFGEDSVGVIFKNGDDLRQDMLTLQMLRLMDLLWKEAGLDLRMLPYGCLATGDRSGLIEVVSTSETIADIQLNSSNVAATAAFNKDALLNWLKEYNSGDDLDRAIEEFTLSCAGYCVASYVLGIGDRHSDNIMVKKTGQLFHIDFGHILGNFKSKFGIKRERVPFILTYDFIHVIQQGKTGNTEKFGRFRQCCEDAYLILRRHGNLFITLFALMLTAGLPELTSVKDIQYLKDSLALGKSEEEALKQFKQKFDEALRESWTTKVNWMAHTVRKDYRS
T1 sequence (P26450 whole entry partner): as the sequence (P26450 whole entry partner) above
Chain of PI3Kδ (O00329 whole entry, canonical isoform): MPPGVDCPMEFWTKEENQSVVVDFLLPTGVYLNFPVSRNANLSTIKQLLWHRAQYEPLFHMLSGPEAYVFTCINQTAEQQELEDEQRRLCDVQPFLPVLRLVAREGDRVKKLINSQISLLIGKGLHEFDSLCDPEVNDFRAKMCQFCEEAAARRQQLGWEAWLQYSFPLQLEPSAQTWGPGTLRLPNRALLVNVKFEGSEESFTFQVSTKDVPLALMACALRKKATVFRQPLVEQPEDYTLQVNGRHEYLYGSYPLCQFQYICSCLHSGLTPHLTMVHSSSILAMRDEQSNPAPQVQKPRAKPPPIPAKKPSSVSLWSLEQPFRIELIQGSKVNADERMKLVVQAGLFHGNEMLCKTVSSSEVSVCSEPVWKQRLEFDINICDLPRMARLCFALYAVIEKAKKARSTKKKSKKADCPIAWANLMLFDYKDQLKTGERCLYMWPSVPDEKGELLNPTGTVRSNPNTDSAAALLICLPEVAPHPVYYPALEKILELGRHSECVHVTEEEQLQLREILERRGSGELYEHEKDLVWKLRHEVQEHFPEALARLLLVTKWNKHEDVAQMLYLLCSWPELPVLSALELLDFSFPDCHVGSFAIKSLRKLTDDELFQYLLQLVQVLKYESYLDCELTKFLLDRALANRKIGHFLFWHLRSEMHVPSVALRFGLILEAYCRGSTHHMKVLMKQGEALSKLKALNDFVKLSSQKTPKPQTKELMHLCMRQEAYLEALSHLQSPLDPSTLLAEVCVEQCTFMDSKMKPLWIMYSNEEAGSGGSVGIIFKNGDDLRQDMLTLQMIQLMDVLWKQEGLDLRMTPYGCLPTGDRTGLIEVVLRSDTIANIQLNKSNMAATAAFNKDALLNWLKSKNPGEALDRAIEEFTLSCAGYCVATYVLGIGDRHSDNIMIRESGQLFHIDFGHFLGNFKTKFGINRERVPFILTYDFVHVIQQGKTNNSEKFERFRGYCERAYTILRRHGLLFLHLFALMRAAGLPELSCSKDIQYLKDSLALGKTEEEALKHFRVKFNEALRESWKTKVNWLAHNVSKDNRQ
Chain of PI3Kδ (P27986 whole entry partner, canonical isoform): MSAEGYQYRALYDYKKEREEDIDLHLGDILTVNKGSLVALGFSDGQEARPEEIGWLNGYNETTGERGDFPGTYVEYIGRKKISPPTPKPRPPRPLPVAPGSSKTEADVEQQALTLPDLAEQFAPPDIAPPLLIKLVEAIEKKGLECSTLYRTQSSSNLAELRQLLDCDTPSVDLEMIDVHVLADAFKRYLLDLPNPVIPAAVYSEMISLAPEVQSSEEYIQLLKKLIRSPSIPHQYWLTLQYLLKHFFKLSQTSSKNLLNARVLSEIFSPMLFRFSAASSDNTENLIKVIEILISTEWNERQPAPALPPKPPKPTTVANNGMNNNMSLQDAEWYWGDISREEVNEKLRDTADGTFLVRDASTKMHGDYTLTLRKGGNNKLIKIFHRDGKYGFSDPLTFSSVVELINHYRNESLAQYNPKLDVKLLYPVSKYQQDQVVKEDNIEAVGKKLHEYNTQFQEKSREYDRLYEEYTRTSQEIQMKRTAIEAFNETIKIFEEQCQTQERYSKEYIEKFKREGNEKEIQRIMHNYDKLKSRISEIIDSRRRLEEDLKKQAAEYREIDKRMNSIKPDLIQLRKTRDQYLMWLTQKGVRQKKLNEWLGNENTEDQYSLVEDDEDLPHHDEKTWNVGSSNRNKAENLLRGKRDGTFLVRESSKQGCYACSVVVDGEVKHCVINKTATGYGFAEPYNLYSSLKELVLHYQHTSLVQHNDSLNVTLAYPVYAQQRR

For the compound `CC[C@H](Nc1ncnc2[nH]cnc12)c1oc2ccccc2c(=O)c1-c1cccc(F)c1` [Compound A1, (S)-2-(1-(9H-purin-6-ylamino)propyl)-3-(3-fluorophenyl)-4H-chromen-4-one], the apparent cytotoxicity result in data set [1] (72-h incubation period, up to 10 μM) was “did not display any apparent cytotoxicity”. Moreover, the GI50 in data set [1] (MOLT-4, Jurkat, CCRF-CEM, Hut-78 & HuT-102, 72 h, MTT, read-out: GI50, reduction in T-lymphoma cell viability) is 1000 to 5000 nM. Also, the IC50 was 2070 nM on PI3K beta, > 10000 nM at PI3K alpha (read-out: Cellular IC50 PI3K alpha (PDGF induced pAKT in 3T3 fibroblasts)) and 23.8 nM on PI3Kδ. For the same compound, the “inhibition of PDGF induced AktS473 phosphorylation” value on PI3K alpha (at 10 μM, 3T3 fibroblasts) was “No inhibition”. Further, the caspase-3 activity entry in the data set with caspase-3 activity is reported as “dose-dependent induction”. Moreover, in the data set with Female Wistar rats, the ED50 worked out at 2.6 mg/kg.
